Test results from article PMC6452907 (Polyhedron, 2019).
Read-outs that look alike come from different tables or passages of the source.

Legend:
[1] = tested on: L. donovani intracellular amastigotes in THP1 cells; format: cell-based, Leishmania donovani
[2] = tested on: THP1 cells; test: Cytotoxicity against THP1 cell cultures; format: cell-based, human; details: THP1 cells; for IC50: read-out: THP1 cells (Cytotoxicity) IC50; for IC90: read-out: THP1 cells (Cytotoxicity) IC90
[3] = tested on: L. donovani axenic amastigotes; test: In vitro antileishmanial assay against L. donovani axenic amastigotes; format: cell-based; details: Leishmania donovani, 72 h; for IC50: read-out: L. donavani Amastigotes IC50; for IC90: read-out: L. donavani Amastigotes IC90
[4] = tested on: L. donovani promastigotes; test: In vitro antileishmanial assay against L. donovani promastigotes; format: cell-based; details: Leishmania donovani, 72 h; for IC50: read-out: L. donavani Promastigotes IC50; for IC90: read-out: L. donavani Promastigotes IC90
[5] = Cytotoxicity against THP1 cell cultures; format: cell-based, human; details: human, THP1 cell cultures
[6] = tested on: L. donovani amastigotes in mouse macrophages; details: cited from earlier work
[7] = read-out: L. donavani Amastigotes + THP1 IC50, intracellular amastigotes in differentiated THP1 macrophages
[8] = read-out: L. donavani Amastigotes + THP1 IC90, intracellular amastigotes in differentiated THP1 macrophages

Q: Which results are given for c1ccc(CN2CCN3CCN(CC2)CCN(Cc2ccccc2)CC3)cc1 [Bn2Bcyclen (L3)]?
A: IC50 [1, 7]: > 25 µM; IC90 [1, 8]: > 25 µM; IC50 [2]: > 25 µM; IC90 [2]: > 25 µM

Q: What does the source list for N=C(N)c1ccc(OCCCCCOc2ccc(C(=N)N)cc2)cc1 [Pentamidine]?
A: IC50 [3]: 20.4 µM; IC90 [3]: > 25 µM; IC50 [4]: 2.93 µM; IC90 [4]: 6.52 µM; IC50 [5]: > 20 µM; IC90 [5]: > 25 µM

Q: Which IC50 [1, 7] does the source give for CN1CCCN2CCN(CCCN(Cc3ccccc3)CC2)CC1 [Bn1Me1Bcyclam (L2)] here?
A: > 20 µM

Q: What about the IC90 [1, 8] of the same molecule?
A: > 20 µM

Q: And the IC50 [2]?
A: > 20 µM

Q: What about the IC90 [2] of the same molecule?
A: > 20 µM

Q: Which “concentration inhibiting growth of L. donovani amastigotes in mouse macrophages” value ([6]; mouse macrophages) does the source give for Cl.Cl.Cl.N=C(N)c1cccc(/C=N/N=C(\N)N/N=C/c2cccc(C(=N)N)c2)c1 [CGP40215A] here?
A: up to 90 μM

Q: Which results are given for c1ccc(CN2CCN3CCCN(CC2)CCN(Cc2ccccc2)CC3)cc1 [Bn2PBCyclen (L4)]?
A: IC50 [1, 7]: 18.2 µM; IC90 [1, 8]: > 25 µM; IC50 [2]: > 25 µM; IC90 [2]: > 25 µM

Q: With C[C@@H]1[C@H](O)[C@@H](C)/C=C/C=C/C=C/C=C/C=C/C=C/C=C/[C@H](O[C@@H]2O[C@H](C)[C@@H](O)[C@H](N)[C@@H]2O)C[C@@H]2O[C@](O)(C[C@@H](O)C[C@@H](O)[C@H](O)CC[C@@H](O)C[C@@H](O)CC(=O)O[C@H]1C)C[C@H](O)[C@H]2C(=O)O [Amphotericine B] as the molecule, how does the IC50 [3] read?
A: 0.79 µM

Q: And the IC90 [3]?
A: 0.959 µM

Q: What about the IC50 [4] of the same molecule?
A: 0.134 µM

Q: And the IC90 [4]?
A: 0.262 µM

Q: And the IC50 ([1]; Leishmania donovani, THP-1, read-out: L. donavani Amastigotes + THP1 IC50)?
A: 0.48 µM

Q: And the IC90 ([1]; Leishmania donovani, THP-1, read-out: L. donavani Amastigotes + THP1 IC90)?
A: 1.94 µM

Q: What about the IC50 [5] of the same molecule?
A: > 10 µM

Q: And the IC90 [5]?
A: > 10 µM

Q: Which “elimination of L. donovani amastigotes from mouse macrophages” value ([6]; at a 1 μM concentration) does the source give for c1ccc(CNCCCNCCCCCCCNCCCNCc2ccccc2)cc1 [MDL27695] here?
A: 77–100%

Q: For c1ccc(CN2CCCNCCN(Cc3ccccc3)CCCNCC2)cc1 [Bn2Cyclam (L10), 1,8-dibenzylcyclam], which IC50 [1, 7] is on record?
A: 12.9 µM

Q: What about the IC90 [1, 8] of the same molecule?
A: 13.2 µM

Q: What about the IC50 [2] of the same molecule?
A: > 25 µM

Q: And the IC90 [2]?
A: > 25 µM
